{"source": "patent US5527785A", "about": "“Selectin receptor modulating compositions” (The Regents of the University of California, priority 1993, dated 1996)", "key": {"[1]": {"biological_target": "L-selectin-Ig", "assay": "Competition ELISA, L-selectin-Ig binding to BSA-sLe^x", "conditions": "for inhibition of L-selectin-Ig binding to BSA-sLe^x (in words): competitive ELISA, FIG. 8"}, "[2]": {"system": "E-selectin-Ig", "assay": "Competition ELISA, E-selectin-Ig binding to BSA-sLe^x", "procedure": "(§1) Briefly, microtiter plates were coated with neoglycoprotein BSA-sLe^x, BSA-sLe^a, (Chembiomed, Alberta, CAN) or unconjugated BSA (0.11 μg/well) in 50 mM carbonate bicarbonate buffer, pH 9.5. Plates were blocked with 20 mg/ml BSA in ELISA buffer (150 mM NaCl, 20 mM HEPES, 2 mM CaCl2, 0.25 mM thimerosal, pH 7.4). E- and P-selectin-Ig fusion proteins (20 nM) were coincubated in the coated, blocked microtiter wells with serially diluted heparin fragments (typically 0-1000 μg/ml) in ELISA buffer containing 10 mg/ml BSA for three hours at room temperature. […] Color development was stopped in the linear range (typically after 4-16 minutes) using 5 μl 4 NH2 SO4, and endpoint optical density measured at 490 nm."}, "[3]": {"biological_target": "L-selectin-Ig", "conditions": "Table 1, L-selectin; footnote: Foxall, et al., supra; cited from earlier work"}, "[4]": {"biological_target": "P-selectin-Ig", "assay": "Competition ELISA, P-selectin-Ig binding to BSA-sLe^x", "conditions": "Table 1, P-selectin; approximate IC50 values", "procedure": "as §1"}, "[5]": {"system": "L-selectin-Ig", "conditions": "11 mM; cited from earlier work"}, "[6]": {"system": "L-selectin-Ig", "conditions": "5 mM; cited from earlier work"}, "[7]": {"system": "P-selectin", "conditions": "Larsen, et al.; cited from earlier work"}, "[8]": {"system": "L-selectin-Ig", "assay": "LS180 colon cancer cell adhesion to immobilized L-selectin-Ig", "type": "cell-based", "conditions": "FIG. 5", "procedure": "(§2) The colon carcinoma cell line, LS180, is a useful model for studying selectin-dependent adhesion since it binds to all three selectins. E-, P-, and L-selectin-Ig were immobilized on microwell (Terasaki) plates coated with protein A. Five μl of buffer containing crude heparin, di-, tetra- or hexasaccharide heparin fragments or antibody (as described above) was incubated for 20 minutes at 4° C. Five μl containing 5000 LS180 cells was added for 30 minutes at 4° C. to allow adhesion to occur. The wells were then washed, fixed with glutaraldehyde, and the bound cells counted by microscopic observation."}, "[9]": {"system": "E-selectin-Ig", "assay": "LS180 colon cancer cell adhesion to immobilized E-selectin-Ig", "type": "cell-based", "conditions": "FIG. 5", "procedure": "as §2"}, "[10]": {"system": "P-selectin-Ig", "assay": "LS180 colon cancer cell adhesion to immobilized P-selectin-Ig", "type": "cell-based", "conditions": "FIG. 5", "procedure": "as §2"}, "[11]": {"system": "P-selectin", "assay": "HL60 cell adhesion to COS cells transfected with P-selectin cDNA", "type": "cell-based", "conditions": "at the concentrations tested in these adhesion assays (HL60 and PMN to selectin-transfected COS)", "method": "COS cells were grown on coverslips in Dulbecco's minimal essential media with 10% fetal calf serum. After 72 hours, polysaccharides were added to the COS cell cultures to achieve final concentrations of 0, 0.1, 1.0, 10.0, 100.0 or 1000.0 μg/ml. Polysaccharides included crude heparin, dermatan sulfate, heparin tetrasaccharide, and heparin hexasaccharide. HL60 cells, a leukocytic cell line, were added to the COS cell cultures 30 minutes after the polysaccharides were added and incubated for 30 minutes. The coverslips were then washed with media to remove unbound cells and COS cells with three or more HL60 cells bound (rosettes) were counted using phase contrast microscopy.\nBriefly, subconfluent monolayers were incubated at 37° C. for 2.5 hours with Dulbecco's modified Eagle's medium (DMEM) with 10% NuSerum (Collaborative Research, Bedford, Mass.) containing 10 μg cDNA, 400 μg/mL DEAE-dextran (Sigma), and 100 μM chloroquine diphosphate (Sigma). […] HL60 cell adhesion was quantitated as number of HL60 rosettes (2 or more cells bound) per 100 transfected COS cells. Number of transfected COS was determined using mAbs specific for E-, P-, and L-selectin (see below) followed by secondary reaction with a fluorescein-conjugated anti-immunoglobulin antibody (Cappel, Durham, N.C.). […]"}}}
{"smiles": "O=C(O)C1=C[C@H](O)[C@@H](OS(=O)(=O)O)[C@H](O[C@H]2[C@H](O)[C@@H](NS(=O)(=O)O)[C@@H](O[C@H]3[C@H](O)[C@@H](OS(=O)(=O)O)[C@H](O[C@H]4[C@H](O)[C@@H](NS(=O)(=O)O)C(O)O[C@@H]4COS(=O)(=O)O)O[C@H]3C(=O)O)O[C@@H]2COS(=O)(=O)O)O1", "note": "(some centres unmarked) [F4, ΔUA2Sα1-4DGIcNS6Sα1-4LIdoA2Sα1-4DGIcNS6S]", "values": [{"measurement": "IC50, inhibition of L-selectin-Ig", "setting": "[1]; competition ELISA, FIG. 12", "value": 61, "unit": "µg/mL"}, {"measurement": "IC50", "setting": "[1]; competition ELISA, FIG. 12, read-out: IC50, inhibition of L-selectin-Ig", "value": 46, "unit": "µM"}, {"measurement": "activity relative to the size fractionated tetrasaccharide mixture", "setting": "[1]; competition ELISA, L-selectin-Ig", "value": "2-4 fold"}, {"measurement": "activity against L-selectin relative to sLe^x in non-cellular assays", "setting": "[1]; non-cellular assays, F4 vs sLe^x", "value": "over 100 fold"}, {"measurement": "activity against E-selectin-Ig (in words)", "setting": "[2]; concentrations up to 1 mM", "value": "no activity"}]}
{"smiles": "CC(=O)NC1C(O)CC(OC2C(O)C(CO)OC(OC3C(CO)OC(O)C(NC(C)=O)C3OC3OC(C)C(O)C(O)C3O)C2O)(C(=O)O)OC1C(O)C(O)CO", "note": "(centres unmarked) [sLex, Neu5Acα2-3Galβ1-4(Fucα1-3)GIcNAc, reference compound]", "values": [{"measurement": "IC50, inhibition of L-selectin-Ig binding", "setting": "[3]", "value": 4100, "unit": "µg/mL"}, {"measurement": "IC50, inhibition of P-selectin-Ig binding to BSA-sLe^x", "setting": "[4]", "value": "> 1000", "unit": "µg/mL"}, {"measurement": "block of L-selectin-Ig binding to glycam-1", "setting": "[5]", "value": "approximately 60%"}, {"measurement": "block of L-selectin-Ig binding to immobilized sLe^x glycolipid", "setting": "[6]", "value": "approximately 50%"}, {"measurement": "activity against L-selectin-Ig binding (in words)", "setting": "[1]; concentrations of up to 1 mM", "value": "no measurable activity"}, {"measurement": "IC50", "setting": "[2]; read-out: IC50, E-selectin-Ig binding to immobilized BSA-sLe^x", "value": "510 ± 60", "unit": "µM"}]}
{"smiles": "CC(=O)N[C@H]1[C@H](O[C@H]2[C@@H](O)[C@@H](CO)O[C@@H](O[C@H]3[C@H](O)[C@@H](O)C(O)O[C@@H]3CO)[C@@H]2O)O[C@H](CO)[C@@H](O[C@@H]2O[C@H](CO)[C@H](O)[C@H](O)[C@H]2O)[C@@H]1O[C@@H]1O[C@@H](C)[C@@H](O)[C@@H](O)[C@@H]1O", "note": "(some centres unmarked) [LNF-III]", "values": [{"measurement": "P-selectin-dependent rosetting of activated platelets to leukocytes (in words)", "setting": "[7]", "value": "blocked"}]}
{"smiles": "O=C(O)C1=C[C@H](O)[C@@H](OS(=O)(=O)O)[C@H](O[C@H]2[C@H](O)[C@@H](NS(=O)(=O)O)C(O)O[C@@H]2COS(=O)(=O)O)O1", "note": "(some centres unmarked) [Di, UA2Sα1-4GIcNS6S]", "values": [{"measurement": "adhesion of LS180 cells to plates coated with L-selectin-Ig (in words)", "setting": "[8]", "value": "no effect"}, {"measurement": "IC50, inhibition of P-selectin-Ig binding to BSA-sLe^x", "setting": "[4]", "value": "> 1000", "unit": "µg/mL"}, {"measurement": "adhesion of LS180 cells to plates coated with E-selectin-Ig (in words)", "setting": "[9]", "value": "no effect"}, {"measurement": "IC50, inhibition of L-selectin-Ig binding to BSA-sLe^x", "setting": "[1]; Table 1, L-selectin, approximate IC50 values", "value": "> 1000", "unit": "µg/mL"}, {"measurement": "inhibition of L-selectin-Ig binding to BSA-sLe^x (in words)", "setting": "[1]; listed as tris-sulfated heparin disaccharide", "value": "some inhibition"}, {"measurement": "inhibition of L-selectin-Ig binding to BSA-sLe^x (in words)", "setting": "[1]; listed as trisulfated disaccharide fragment of heparin", "value": "somewhat effective"}, {"measurement": "adhesion of LS180 cells to plates coated with P-selectin-Ig (in words)", "setting": "[10]", "value": "no effect"}, {"measurement": "blocking activity in the COS cell adhesion assays (in words)", "setting": "[11]", "value": "little blocking activity"}]}
